In patent US20240131028A1, “CHEMOVACCINATION AGAINST PLASMODIUM INFECTION WITH SELECTIVE PLASMEPSIN X INHIBITORS” (Merck Sharp & Dohme LLC, priority 2021, published 2024):
Entries after “also recorded” stand apart in the source; their conditions may differ. Read-outs that look alike come from different tables or passages of the source.

Assays:
[1] = system: ring stage parasites (Pf); assay: Parasite lactate dehydrogenase (LDH) growth assay (Parasite Assay, PfLDH Assay); assay type: cell-based, P. falciparum; settings: Plasmodium falciparum
[2] = target: PfPMX (recombinant plasmepsin X) (Plasmodium falciparum, UniProt Q8IAS0); assay: FRET based assay for plasmepsin X cleavage of Rh2 peptide substrate; assay type: biochemical; settings: AVG, N=2, pH 5.5
Procedure: (§1) For cleavage assays, 10-point dilution series of the compounds (Compound EC50 determined by LDH assay) were prepared in 1536 well black low volume assay plates (Corning #3728) using an Acoustic Dispenser Echo555 (Labcyte). Appropriate volumes of 10 mM compound stocks were transferred into the assay plates starting at a top dose of 0.9 μM for PfPMX and 90 μM for PfPMIX in a 1:3 fold dilution series with 1% DMSO final concentration. IC50 values were analysed in Graphpad Prism software using a nonlinear regression four-parameter fit analysis. The equation used was sigmoidal dose response (variable slope), Y=bottom+[…].
(§2) All compound potency assays were conducted in 5 μl total volume. […] Samples were excited at 340 nm and fluorescence emission measured at 490 nm using PHERAstar FSX plate reader (BMG). […]
(§3) For cleavage assays, 10-point dilution series of the compounds, recombinant PMIX or PMX, and FRET peptide substrates were prepared in 1536 well plates. Samples were excited at 340 nm and fluorescence emission measured at 492 nm using an Envision fluorescence plate reader (Perkin-Elmer).
(§4) IC50 values were calculated by Dotmatics 5.3 and Spotfire 7.11.1 software using a nonlinear regression four-parameter fit analysis. […]

[3] = target: T1, PfPMIX (recombinant plasmepsin IX) (Plasmodium falciparum, UniProt Q8ILG2); assay: FRET based assay for plasmepsin IX cleavage of RON3 peptide substrate; assay type: biochemical; settings: AVG, N=2, pH 5.5
T1 sequence (Q8ILG2 1-627): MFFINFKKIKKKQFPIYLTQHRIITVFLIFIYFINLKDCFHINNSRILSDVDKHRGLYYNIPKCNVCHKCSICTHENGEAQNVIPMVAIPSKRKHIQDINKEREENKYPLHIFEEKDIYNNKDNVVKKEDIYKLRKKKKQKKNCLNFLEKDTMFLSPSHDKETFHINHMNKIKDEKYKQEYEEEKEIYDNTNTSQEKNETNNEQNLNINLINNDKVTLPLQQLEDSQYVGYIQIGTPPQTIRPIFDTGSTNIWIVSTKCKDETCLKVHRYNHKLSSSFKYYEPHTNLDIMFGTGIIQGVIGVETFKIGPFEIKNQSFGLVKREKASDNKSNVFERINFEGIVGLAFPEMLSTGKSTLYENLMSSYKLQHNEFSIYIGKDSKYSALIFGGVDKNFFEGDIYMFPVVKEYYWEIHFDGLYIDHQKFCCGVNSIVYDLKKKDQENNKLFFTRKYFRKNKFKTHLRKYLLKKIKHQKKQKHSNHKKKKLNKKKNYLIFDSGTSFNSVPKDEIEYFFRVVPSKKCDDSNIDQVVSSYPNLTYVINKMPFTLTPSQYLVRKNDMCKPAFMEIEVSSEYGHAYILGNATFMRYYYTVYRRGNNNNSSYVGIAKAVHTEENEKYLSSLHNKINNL
Procedure: as §1, §2, §3, §4

[4] = system: Plasmodium berghei sporozoites (PbmCherryLuci); assay: Chemovaccination of mice: sporozoite liver infection, oral treatment, mosquito bite challenge; assay type: in vivo, Plasmodium berghei in C57BL/6 mice
Procedure: The indicated number of Plasmodium berghei sporozoites expressing mCherry and luciferase reporters (PbmCherryLuci) were inoculated intravenously, and compounds were administered to mice by oral gavage 36 and 48 hours after injection during liver infection. Plasmodium berghei liver infection levels and egress of parasites from the liver were measured by bioluminescence signal from the parasites using the luciferase reporter and an In Vivo Imaging System (IVIS, Perkin Elmer) at the peak of liver infection (52 hours post infection, hpi), during liver egress (55 hpi) as well as during the first round of blood infection (65 hpi). Initiation of blood infection was also measured by flow cytometry at 65 hpi using the mCherry reporter to determine the parasitemia of this first round of blood infection. These analyses allowed quantification of the efficacy of drug killing of parasites in the liver (52 hpi), preventing their egress from the liver (55 hpi) or preventing their successful infection of the blood (65 hpi). Mice were monitored by giemsa stained thin blood smears for the presence of parasites in the blood for 30 days post infection. If no blood infection was seen during the subsequent 30 days, the mice were declared cured of malaria infection thus indicating the chemoprophylactic activity of these compounds.
The chemoprophylactic activity of administered compounds is not to kill liver Plasmodium berghei parasites nor to prevent their egress from the liver, but rather that liver-derived merozoites were unable to initiate a blood infection in these mice. The parasites are thus attenuated by the administered compounds. Such parasite attenuation by genetic means is a powerful vaccination strategy, and as such cure of liver parasites by the compounds could simultaneously be considered as chemoprophylaxis as well as a chemovaccination strategy. Mice previously cured of liver infection with the administered compounds (Chemovaccinated) were challenged with bites from 10 PbmCherryLuci infected mosquitoes at the indicated times after cure of liver infection with the administered compounds to determine the level of immunity engendered by this chemovaccination approach.
C57BL/6 mice were administered Example 2, as described in the general procedure. Thirty nine mice were infected with 40,000 sporozoites. Twenty-one mice were untreated. Six C57BL/6 mice were administered 2×100 mg/kg of Example 2. Six C57BL/6 mice were administered 2×200 mg/kg. Six C57BL/6 mice were administered 2×500 mg/kg. Example 2 dosed at 2×100 mg/kg cured four of six mice of their infection, as did mice dosed with 2×200 mg/kg of Example 2. […] These infections and treatments can be considered immunizations or chemovaccinations, since the parasite is attenuated by Example 2 and is unable to initiate the blood infection.
Additionally, the eight mice previously chemovaccinated with 2×100 mg/kg and 2×200 mg/kg of Example 2 were challenged three months later with bites from 10 mosquitoes infected with PbmCherryLuci sporozoites.

[5] = eight mice chemovaccinated once with 2×100 or 2×200 mg/kg, challenged three months later, bites from 10 infected mosquitoes

Chain of PfPMX (recombinant plasmepsin X) (Q8IAS0 222-573): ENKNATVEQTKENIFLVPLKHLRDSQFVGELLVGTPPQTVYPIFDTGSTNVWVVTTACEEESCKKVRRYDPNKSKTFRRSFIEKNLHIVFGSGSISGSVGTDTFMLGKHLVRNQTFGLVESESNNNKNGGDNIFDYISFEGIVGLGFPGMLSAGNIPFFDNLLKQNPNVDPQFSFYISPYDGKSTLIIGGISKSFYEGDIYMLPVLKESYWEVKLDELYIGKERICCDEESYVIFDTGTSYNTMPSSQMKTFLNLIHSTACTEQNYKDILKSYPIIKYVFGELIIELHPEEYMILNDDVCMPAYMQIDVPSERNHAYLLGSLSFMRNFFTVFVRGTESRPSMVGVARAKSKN

In the case of CCC1(CC)CC(=O)N([C@H](c2cccnc2)[C@H]2C[C@@H]2C(=O)N[C@H]2CC(C)(C)Oc3ccccc32)C(=N)N1 [Example 2, (1S,2S)-2-((S)-(4,4-diethyl-2-imino-6-oxotetrahydropyrimidin-1(2H)-yl)(pyridin-3-yl)methyl)-N—((S)-2,2-dimethylchroman-4-yl)cyclopropanecarboxamide], the EC50 ([1]; 72 h, Table 3, 72 hours growth, LDH readout, read-out: EC50) is reported as 0.9 nM, the EC50 ([1]; Table 6, AVG, N=3, read-out: PfLDH Assay (EC50)) is reported as 0.86 nM and the Ki [2] is reported as 0.026 nM. For the same compound, the Ki [3] was 5.95 nM, the “mice cured of their infection” value ([4]; 2×100 mg/kg oral gavage 36 and 48 h after 40,000 sporozoites i.v., 30 days monitoring) was “four of six” and the “mice cured of their infection” value ([4]; 2×200 mg/kg oral gavage 36 and 48 h after 40,000 sporozoites i.v., 30 days monitoring) was “four of six”. For the same compound, the “mice cured of their infection (chemoprophylaxis)” value ([4]; 2×500 mg/kg oral gavage 36 and 48 h after 40,000 sporozoites i.v., 30 days monitoring, FIG. 1) was “cured all mice of their infection; also recorded: never got malaria”, the “protection from infection upon mosquito bite challenge after two immunizations” value ([4]; 2×500 mg/kg twice, challenged 3 months later, bites from 10 infected mosquitoes, FIG. 2) was “completely protected from infection” and the “protection after two immunizations” value ([4]; 2×500 mg/kg twice, mosquito bite challenge 3 months later, FIG. 2) was 100%. For the same compound, the “development of malaria disease after challenge, one immunization” value [4, 5] was “all mice ultimately developed malaria disease”, the “infection upon mosquito bite challenge after one immunization” value [4, 5] was “showed a reduction in infection upon challenge” and the “cure of second infection (boost immunization)” value ([4]; six mice, six weeks later 20,000 sporozoites, 2×500 mg/kg) was “cured them of this second infection”.
